Data set [1] has as its system Wistar rats. Kind of data set: Learned helplessness model: Open Field test. The format is in vivo. The method, then:
(§1) Weigh was measured on an analytical balance, with an accuracy of 0.0001 g, the solution was prepared with a margin of 0.5 ml.
(§2) The tetracyclic antidepressant Maprotiline (Lyudiomil), a monoamine reuptake inhibitor, was used as a positive control. Animals received a daily intraperitoneal injection (i.p) of Maprotiline for ten days (M9651, Merck, 4.5 mg/kg, dissolved in saline: 200 μl per administration).
(§3) The state of “learned helplessness” according to modern concepts adequately reflects anxiety-depressive syndrome, reproducing the main signs of a person's endogenous depression, including the severity of effects of helplessness, hopelessness, and characteristic endocrine disorders. To develop LH, rats were subjected to uncontrolled unavoidable aversive stress (electro cutaneous irritation). […] Stimulation was performed automatically using a software randomizer.
The Open Field test is a classic method for assessing the level of motor activity and exploratory behavior of rodents in new stressogenic conditions. […] On the 5th day after stressing in the LH model, the rat was placed in the center of the OF. The following parameters were measured for 5 minutes: latency to start of moving, the number of crossed squares (outside, intermediate and central), the duration of the rears and immobilization time.
(§4) “LH”—a group of animals subjected to stress, in which a depressive state of “learned helplessness” was developed. Pharmacotherapy was not performed in the LH group; the development of experimental depression was studied. […] “LH+Map.”—the comparison drug group. Maprotiline was injected intraperitoneally at a dosage of 4.5 mg/kg ten days daily to develop experimental depression.

Data set [2] concerns Wistar rats. Put plainly: Learned helplessness model: Elevated Plus-Maze test. Type of data set: in vivo. As to conditions: Map 4.5 mg/kg i/p; FQSE 0.5 and 2.5 mg/kg i/n. As for the experimental part:
Weigh was measured on an analytical balance, with an accuracy of 0.0001 g, the solution was prepared with a margin of 0.5 ml. For the experiment, a freshly prepared FQSE (SEQ ID NO:10) solution was used; for the second day, this solution was stored in a refrigerator at +4° C. The tetracyclic antidepressant Maprotiline (Lyudiomil), a monoamine reuptake inhibitor, was used as a positive control. […] The classical paradigm of “learned helplessness” (LH) was used as an experimental model of depression ([…] et al. (1975). Learned helplessness in the rat. J. Comp. Physiol. […] The state of “learned helplessness” according to modern concepts adequately reflects anxiety-depressive syndrome, reproducing the main signs of a person's endogenous depression, including the severity of effects of helplessness, hopelessness, and characteristic endocrine disorders. To develop LH, rats were subjected to uncontrolled unavoidable aversive stress (electro cutaneous irritation). […] Stimulation was performed automatically using a software randomizer. […] The time spent by the animal inside and outside the closed arms (in the open arms and in the center), the number of transitions between the arms, the number of stretch-attended postures were evaluated. […]

Data set [3] concerns Wistar rats. Kind of data set: Learned helplessness model: Porsolt forced swimming test, one-day modification. Type of data set: in vivo. The settings on record: Maprotiline 4.5 mg/kg i/p; FQSE 0.5 mg/kg i/n. The method, then:
as §1, §2, §3, §4

Data set [4] deals with corticosterone in rat plasma. Put plainly: Learned helplessness model: plasma corticosterone and dexamethasone test. The format is in vivo, rats. The method, then:
On the first day of the test (DXMT1) at 10:00 AM, animals were injected intraperitoneally with saline, then at 04:00 PM on the same day peripheral blood samples were taken to determine the basal level of the hormone, which caused stress, and 30 minutes after taking the rat from the cage and receiving initial sample, re-taken blood to measure hormone stress level.
To study the sensitivity of the HPA system to feedback signals, rats were injected with dexamethasone (10 μg/kg, intraperitoneally) the next day (DXMT2) at 10 am. The procedure for taking blood from the tail vein was repeated after 6 and 6.5 hours. The corticosterone content was determined by enzyme-linked immunosorbent assay with reagent kits “Corticosterone-ELISA” (“Hema”, RF) in two parallel samples.
as §4

Another data set concerns Sprague-Dawley rats. Kind of data set: Chronic restraint stress model: Porsolt Forced Swimming test. Type of data set: in vivo. As to conditions: CRS, FQSE 3 mg/kg intranasal. As for the experimental part:
To simulate a depressive state, experimental animals were placed in the individual restrainers (“Open Science”, Russia) for six hours daily for 14 days (hereinafter “chronic restraint stress=CRS”). In order to study the neurotrophic effect of FQSE (SEQ ID NO:10), the animals were divided into 5 groups, 10 individuals each. The groups are as follows: Group 1, control unstressed animals, receiving 10 μl (a pair of 5 μl doses) of saline intranasally; Group 2, stressed animals, receiving 10 pI of saline intranasal (CRS+Veh); Group 3, stressed animals, receiving fluoxetine (FO) at a dose of 5 mg/kg intraperitoneal (CRS+FO, positive control); Group 4, stressed animals, receiving a peptide drug at a dose of 0.3 mg/kg in 10 pI of saline intranasal (CRS+FQSE (SEQ ID NO:10) 0.3); Group 5, stressed animals, receiving a peptide drug at a dose of 3 mg/kg in […] of saline intranasal (CRS+FQSE (SEQ ID NO:10) 3). The administration of drugs was carried out daily, 30 minutes before placing rats in the restrainers. […]
The changes in motor activity and emotional state of animals were evaluated in the Open Field (OFT) and Porsolt Forced Swimming tests (FST) fourteen days after the start of the experiment. […] For three minutes the horizontal and vertical motor activity was measured. The total number of crossed squares, as well as the length of the distance, traveled, and the number of rears was counted. […]

In a further data set the test system is BDNF. Put plainly: Western blot of brain homogenates after CRS: BDNF. As to conditions: fluoxetine 5 mg/kg. Type of data set: in vivo, rats. The method, then: (§5) To simulate a depressive state, experimental animals were placed in the individual restrainers (“Open Science”, Russia) for six hours daily for 14 days (hereinafter “chronic restraint stress=CRS”). […] The administration of drugs was carried out daily, 30 minutes before placing rats in the restrainers.
(§6) At the end of the behavioral examination, the rats were decapitated, and their brains extracted for subsequent western blot analysis. A total of 51 samples of homogenized brain tissue from Sprague-Dawley rats (3-4 months old) were received from the Customer. 25 samples were homogenates of the cerebral cortex, 26 samples were homogenates of the hippocampus isolated from rat brain. The amount of homogenized tissue in each sample was less than 50 mg. […] They were Incubated in ice for 30 minutes. Then the samples were centrifuged at 12000 g, 15 minutes, +4° C.
(§7) All the steps necessary for the analysis of protein levels of BDNF, p-p70S6k (Thr421/Ser424), p-ERK (one and two), (Thr202/Tyr204), p-GSK3β (Ser9), p-PKC (PKCG gamma Thr514) and the GAPDH reference protein were provided in the studied samples using Western blotting. […]
(§8) The integral areas of the spots obtained were calculated as a quantitative assessment and then normalized to the amount of protein in the sample.

The next data set relates to p-p70S6k (Thr421/Ser424). Put plainly: Western blot of brain homogenates after CRS: p-p70S6k. Type of data set: in vivo, rats. The settings on record: fluoxetine 5 mg/kg. The method, then: as §5, §6, §7, §8
For a further data set, the system named is p-ERK 2 (Tyr204). Put plainly: Western blot of brain homogenates after CRS: p-ERK2. As to conditions: fluoxetine 5 mg/kg; FQSE 0.3 mg/kg; against stress and control levels. Type of data set: in vivo, rats. The method, then:
as §5, §6, §7, §8

Another data set deals with p-PKC (PKC gamma Thr514). Put plainly: Western blot of brain homogenates after CRS: p-PKC. The format is in vivo, rats. The method, then:
as §5, §6, §7, §8

The next data set has as its system p-GSK3β (Ser9). Kind of data set: Western blot of brain homogenates after CRS: p-GSK3β. As to conditions: fluoxetine; FQSE. The format is in vivo, rats. The method, then: as §5, §6, §7, §8
The test system of the next data set is Sprague Dawley rats. Put plainly: Predator odor stress exposure and conditioned place aversion (PTSD model). The format is in vivo. As to conditions: DOX 1 mg/kg IP. As for the experimental part:
Doxazosin (DOX, Sigma-Aldrich, St. Louis, MO, USA, 1 mg/kg, IP) was prepared in sterile saline. Previously it has been shown that DOX is effective in the treatment of some PTSD symptoms in veterans (Rodgman et al. (2016). Doxazosin XL reduces symptoms of posttraumatic stress disorder in veterans with PTSD: a pilot clinical trial. J. Clin. Psychiat., 77(5), e561-565). The two doses of FQSE (SEQ ID NO:10) (0.05 and 0.5 mg/kg, CS, Menlo Park, CA) were prepared fresh for each test day in sterile saline and administered intra-nasally 30 minutes prior to testing. Each dose was administered in a randomized order across groups. […] The same procedure with isoflurane was used to administer doxazosin however the drug was administered IP. Individuals performing behavioral tests were blind to drug treatment. […] Potential differences between groups that were not odor exposed and odor exposed groups were analyzed using One-Way ANOVA with drug dose as the primary factor. […]

In the case of `CNCCCC12CCC(c3ccccc31)c1ccccc12` [Maprotiline], the “vertical activity (rears)” value with Wistar rats [1] (FQSE 0.5 mg/kg i/n, Map 4.5 mg/kg i/p) is on record as “did not differ”. In addition, in the data set on Wistar rats [1] (FQSE 2.5 mg/kg i/n, Maprotiline 4.5 mg/kg i/p, daily, vs LH group), the “freezing time when placed in the center of the OF” value was “significant decrease”. For the same compound, the “decrease in the number of animals showing immobilization after LH” value with Wistar rats [1] (Maprotiline 4.5 mg/kg i/p, FQSE 2.5 mg/kg i/n) amounted to 2.3 fold. Further, in the data set on Wistar rats [2], the “appearance on the open arms” value was “did not reach statistical significance”. In addition, in the data set with Wistar rats [3], the active swimming time result is recorded as “increase in active swimming time” and the time spent immobile entry was “significant reduction”. For the same compound, the “magnitude of suppression—Δ between the Saline and DXM in the stress level of corticosterone” value in data set [4] (LH + FQSE 0.5, LH + Map.) is 248.5 nmol/L. Further, the “suppression of the stress-induced increase in CS in blood after DXM” value in [4] (Map 4.5 mg/kg, FQSE 0.5 mg/kg) is given as “significant suppression”. Moreover, in data set [4] (Map, FQSE in both doses (0.5, 2.5 mg/kg), vs LH group), the “basal level of corticosterone (CS) in plasma” value is listed as “significantly lower level of CS”.

As for `CNCCC(Oc1ccc(C(F)(F)F)cc1)c1ccccc1` (stereo not shown) [fluoxetine], the “duration of active swimming” value with Sprague-Dawley rats (FO 5 mg/kg intraperitoneal) was “no effect”. In the data set with Sprague-Dawley rats (FO 5 mg/kg, vs CRS+Veh), the “time spent passive (inactive) swimming” value is “had no effect”. The “levels of BDNF protein in cerebral cortex and hippocampus” value with BDNF is “showed no relation”. Also, the “levels of p-p70S6k in cerebral cortex or hippocampus” value in the data set with p-p70S6k (Thr421/Ser424) was “showed no relation”. Further, in the data set on p-ERK 2 (Tyr204), the “cortical levels of p-ERK 2 (Tyr204)” value is “decreased”. In addition, the “levels of p-PKC (Thr 514) in the cerebral cortex” value with p-PKC (PKC gamma Thr514) (fluoxetine 5 mg/kg, FQSE 0.3 mg/kg) is “showed no changes”. In addition, in the data set on p-PKC (PKC gamma Thr514) (fluoxetine, FQSE), the “normalization of p-PKC levels in the hippocampus” value is “neither fluoxetine nor peptide FQSE (SEQ ID NO:10) contributed to the normalization”. Besides, the “p-GSK3β in the hippocampus” value in the data set on p-GSK3β (Ser9) is “no response”.

`COc1cc2nc(N3CCN(C(=O)C4COc5ccccc5O4)CC3)nc(N)c2cc1OC` (stereo not shown) [Doxazosin]: in the data set on Sprague Dawley rats (FQSE 0.05 and 0.5 mg/kg i.n.), the “behavior of groups not exposed to predator odor (time in randomly paired chambers)” value was “normal behavior”. In the data set on Sprague Dawley rats (FQSE 0.5 mg/kg intra-nasally, vs VEH), the “predator odor-induced place aversion” value was “there was not a significant difference from VEH”.

Values taken from patent US12178838B2, “Synthetic neuromodulatory peptides” (Lactocore, Inc., priority 2019, dated 2024).
